Where two headings read alike, the source gives them in different places.
Key:
[1] = test system: Goldblatt two-kidney renal hypertensive rats; assay: Test 1: antihypertensive activity, oral, tail-plethysmographic blood pressure in Goldblatt two-kidney renal hypertensive rats; type: in vivo, rat (male STD Wistar strain); conditions: for change in vivo at 100 µmol/kg: Rattus norvegicus; for Peak time (time at which the maximum hypotensive effect was observed): renal hypertensive rats; for antihypertensive effect time course relative to compound 1 (SQ-14225), FIGS. 1 and 2: single oral, 0.015 millimole/kg and 0.1 millimole/kg, mean of six animals
From the text: The contralateral kidney and its renal artery were left intact. The animals were maintained on commercial rat chow and tap water ad libitum.
In each Figure, the ordinate represents the changes in blood pressure (mmHg) and the abscissa, the time (hours) elapsed after oral administration.

mice = assay: Test 2: toxicity (acute LD50 in mice); conditions: mice
From the text: (§1) Male STD-ddY strain mice, weighing 21 to 24 grams, were used.

in vivo = conditions: mouse, in vivo
From the text: as §1

[2] = test system: angiotensin I-converting enzyme; conditions: Science 196, 441 (1977); cited from earlier work
[3] = test system: experimental hypertensive animals; conditions: Science 196, 441 (1977); cited from earlier work
[4] = test system: angiotensin I-converting enzyme; conditions: Biochemistry, 16, 5484 (1977); cited from earlier work
[5] = oral, 0.1 millimole/kg, 7 hours after administration, % of initial blood pressure, read-out: Change in blood pressure, 7 hours after administration (%)
[6] = oral, 0.1 millimole/kg, at peak time, % of initial blood pressure, read-out: Change in blood pressure, peak time (%)
[7] = oral, 0.1 millimole/kg, 7 hours after administration
[8] = oral, 0.1 millimole/kg, at peak time
[9] = oral, 0.1 millimole/kg, positive = decrease

Structure (SMILES) | change in vivo at 100 µmol/kg [1, 5] | change in vivo at 100 µmol/kg [1, 6] | Change in blood pressure, 7 hours after administration [1, 7] | Change in blood pressure, peak time [1, 8] | Peak time (time at which the maximum hypotensive effect was observed) ([1]; oral, 0.1 millimole/kg) | antihypertensive effect time course relative to compound 1 (SQ-14225), FIGS. 1 and 2 [1] | toxicity (in words) (mice) | LD50 (in vivo; iv) | LD50 (in vivo; po) | inhibitory activity in vivo on angiotensin I-converting enzyme [2] | antihypertensive activity in experimental hypertensive animals [3] | inhibition of angiotensin I-converting enzyme in vitro [4] | change in vivo at 100 µmol/kg ([1]; po, 7 h, read-out: Change in blood pressure, 7 hours after administration (%)) | change in vivo at 100 µmol/kg ([1]; po, read-out: Change in blood pressure, peak time (%)) | decrease in initial blood pressure at 7 hours after medication [1, 9] | maximum hypotensive response (decrease in initial blood pressure) [1, 9] | reduction of blood pressures (in words) ([1]; oral, 0.1 millimole/kg)
CC(=O)SC[C@@H](C)C(=O)N1CCC[C@H]1C(=O)N[C@@H](Cc1ccccc1)C(=O)O [A, 1-(D-3-Acetylthio-2-methylpropanoyl)-L-prolyl-L-phenylalanine] | -16% | -17% | -33 mmHg | -35 mmHg | 5 h | milder and more prolonged antihypertensive effect | very weak | > 1000 mg/kg | > 6000 mg/kg |  |  |  |  |  |  |  | 
CCC(=O)SC[C@@H](C)C(=O)N1CCC[C@H]1C(=O)N[C@@H](Cc1ccccc1)C(=O)O [B, 1-(D-3-Propanoylthio-2-methylpropanoyl)-L-prolyl-L-phenylalanine] | -17% | -18% | -36 mmHg | -40 mmHg | 5 h | milder and more prolonged antihypertensive effect | very weak | > 1000 mg/kg | > 6000 mg/kg |  |  |  |  |  |  |  | 
C[C@H](CSC(=O)C(C)(C)C)C(=O)N1CCC[C@H]1C(=O)N[C@@H](Cc1ccccc1)C(=O)O [C, 1-[D-3-(2,2-Dimethylpropanoyl)thio-2-methylpropanoyl]-L-prolyl-L-phenylalanine] | -18% | -20% | -37 mmHg | -41 mmHg | 5 h |  |  |  |  |  |  |  |  |  |  |  | 
C[C@H](CS)C(=O)N1CCC[C@H]1C(=O)O [Compound 1, 1-(D-3-Mercapto-2-methylpropanoyl)-L-proline, reference compound] |  |  | -15 mmHg | -35 mmHg |  |  |  |  |  | potent inhibitory activity in vivo | superior antihypertensive activity | particularly good inhibitor of angiotensin I-converting enzyme | -8% | -18% | 8% | 18% | 
C[C@H](CS)C(=O)N1CCC[C@H]1C(N)=O [Compound 2, 1-(D-3-Mercapto-2-methylpropanoyl)-L-proline amide, reference compound] | -1% | -3% | -1 mmHg | -5 mmHg | 2 h |  |  |  |  |  |  |  |  |  |  |  | did not reduce blood pressures
CC(=O)SC[C@@H](C)C(=O)N1CCC[C@H]1C(N)=O [Compound 3, 1-(D-3-Acetylthio-2-methylpropanoyl)-L-proline amide, reference compound] | -2% | -4% | -4 mmHg | -7 mmHg | 2 h |  |  |  |  |  |  |  |  |  |  |  | did not reduce blood pressures
CC(C)C(=O)SC[C@@H](C)C(=O)N1CCC[C@H]1C(=O)N[C@@H](Cc1ccccc1)C(=O)O [D, 1-[D-3-(2-Methylpropanoyl)thio-2-methylpropanoyl]-L-prolyl-L-phenylalanine] | -14% | -18% | -29 mmHg | -37 mmHg | 5 h |  |  |  |  |  |  |  |  |  |  |  | 
CCSSC[C@@H](C)C(=O)N1CCC[C@H]1C(=O)N[C@@H](Cc1ccccc1)C(=O)O [E, 1-(D-3-Ethyldithio-2-methylpropanoyl)-L-prolyl-L-phenylalanine] | -19% | -19% | -38 mmHg | -38 mmHg | 7 h |  |  |  |  |  |  |  |  |  |  |  | 
C[C@H](CSC(=O)c1ccccc1)C(=O)N1CCC[C@H]1C(=O)N[C@@H](Cc1ccccc1)C(=O)O [F, 1-(D-3-Benzoylthio-2-methylpropanoyl)-L-prolyl-L-phenylalanine] | -15% | -15% | -31 mmHg | -31 mmHg | 5 h |  |  |  |  |  |  |  |  |  |  |  | 
COC(=O)[C@H](Cc1ccc(O)cc1)NC(=O)[C@@H]1CCCN1C(=O)[C@H](C)CSC(C)=O [G, 1-(D-3-Acetylthio-2-methylpropanoyl)-L-prolyl-L-tyrosine methyl ester] | -15% | -17% | -29 mmHg | -33 mmHg | 5 h |  |  |  |  |  |  |  |  |  |  |  | 
CCOC(=O)[C@H](Cc1ccc(O)cc1)NC(=O)[C@@H]1CCCN1C(=O)[C@H](C)CSC(C)=O [H, 1-(D-3-Acetylthio-2-methylpropanoyl)-L-prolyl-L-tyrosine ethyl ester] | -14% | -17% | -29 mmHg | -34 mmHg | 5 h |  |  |  |  |  |  |  |  |  |  |  | 
CCOC(=O)[C@H](Cc1c[nH]c2ccccc12)NC(=O)[C@@H]1CCCN1C(=O)[C@H](C)CSC(C)=O [I, 1-(D-3-Acetylthio-2-methylpropanoyl)-L-prolyl-L-tryptophan ethyl ester] | -14% | -16% | -26 mmHg | -30 mmHg | 5 h |  |  |  |  |  |  |  |  |  |  |  | 
CCOC(=O)[C@H](CCSC)NC(=O)[C@@H]1CCCN1C(=O)[C@H](C)CSC(C)=O [J, 1-(D-3-Acetylthio-2-methylpropanoyl)-L-prolyl-L-methionine ethyl ester] | -13% | -15% | -27 mmHg | -30 mmHg | 5 h |  |  |  |  |  |  |  |  |  |  |  | 

Source: patent US4248883A, “1-(3-Mercapto-2-methylpropanoyl)prolyl amino acid derivatives and salts thereof, processes for their preparation, and pharmaceutical compositions containing such compounds” (Dainippon Pharmaceutical Co., Ltd., priority 1978, dated 1981)
